Laboratory results from patent publication US9132131B2, “Use of adenosine A3 receptor agonists for treatment of neuropathic pain” (Saint Louis University, priority 2011, dated 2015).

Experiments:
Assay type in all cases: in vivo, mice
[1] = system: acute nociception (hot plate latency); experiment: Hot plate assay for acute nociception; conditions: 0.5 μmol/kg
Procedure: (§1) Tail flick and hot plate assay in mice for acute nociception. The tail flick test, which measures latency(s) of tail withdrawal from a noxious radiant heat source (Ugo Basile; model number 37360) was used to measure thermal nociceptive sensitivity in mice with baseline latencies of 3-5 seconds and a cut-off time of 15 seconds to prevent tissue injury. Tail flick latencies were taken before and at 30, 60 and 120 minutes after i.p. injection of IB-MECA, MRS1898 (0.5 μmol/kg) or its vehicle (0.1% DMSO in saline). For the hot plate test, nociceptive thresholds were determined as previously reported by our group by measuring latencies (in seconds) of mice placed in a transparent glass cylinder on a hot plate maintained at 52° C.. Responses indicative of nociception included intermittent lifting and/or licking of the hindpaws or escape behavior. Hot plate latencies were taken in mice from all groups before and after drug administration. A cut-off latency of 15 seconds was employed to prevent tissue damage.

[2] = system: acute nociception (tail flick latency); experiment: Tail flick assay for acute nociception; conditions: IB-MECA, MRS1898 0.5 μmol/kg i.p. at 30, 60, 120 minutes; morphine 35 μmol/kg s.c. positive control
Procedure: as §1

[3] = system: motor function (Rotarod latency); experiment: Rotarod test; conditions: 0.5 μmol/kg i.p., 30, 60, 120 minutes
Procedure: Rotarod test in mice: Mice were trained before experimentation for their ability to remain for 60 seconds on a revolving Rotarod for mice apparatus (Ugo Basile; accelerating units increasing from 5 to 40 rpm in 60 sec). Mice were injected i.p. with IB-MECA, MRS1898 (0.5 μmol/kg) or vehicle (0.1% DMSO in saline) and then examined at 30, 60 and 120 minutes after administration for motor impairments on the Rotarod. The latency time to fall off the Rotarod was determined with a cut-off time of 120 seconds.

With `CNC(=O)[C@H]1O[C@@H](n2cnc3c(NCc4cccc(I)c4)ncnc32)[C@H](O)[C@@H]1O` [IB-MECA, N^6-(3-iodobenzyl)-adenosine-5′-N-methyluronamide] the “effect on the hot plate” value [1] was “had no effect”, the “effect on tail flick latency” value [2] was “lacked effect” and the Rotarod deficits [3] was “did not induce Rotarod deficits”.
